Results taken from paper PMC13242511, “Disrupting Notch signalling by a small molecule inhibiting dihydroorotate dehydrogenase activity” (Scientific Reports, 2026).
Read-outs that look alike come from different tables or passages of the source.

Legend:
Notch signalling = experiment: Notch reporter assay (12xCSL firefly luciferase / renilla luciferase, HEK293T Notch1ΔE reporter cell line clone #A1-11); assay type: cell-based; design: AUC Notch: scale not given here; conditions: for Bottom (Emax): Emax indicated independent from assay constraints, in % (unit assumed); for IC50: Homo sapiens, HEK-293T; for AUC Notch: area under the 14-point dose-response curve, replicates averaged
Source text: To identify novel Notch inhibitors in an unbiased manner, we generated a novel Notch reporter construct, which records the level of Notch signalling immediately downstream of receptor activation rather than further downstream in the signalling cascade, for example at the level of Hes and Hey proteins (Fig. 1B). […] The reporter construct carries piggy-bac sequences at both ends of the promoter-reporter cassette as well as cSH4 insulator elements to reduce transcriptional noise[21] and was transfected into HEK293T cells. To achieve a robust level of Notch receptor activity in the HEK293T reporter cell line and to confine the search for inhibitors to compounds affecting the receptor function and eliminating the need for ligand activation, a truncated ligand-independent version of the Notch1 receptor, mimicking an S2-cleaved Notch1 receptor (Notch1ΔE) and spontaneously activated by S3-cleavage[22] (Fig. 1C) was introduced into the cell line carrying the reporter construct (Fig. 1D). In addition, an HSV-TK-renilla luciferase plasmid was introduced into the cell line as an internal control for normalisation of the reporter expression (Fig. 1D).
A de novo Notch reporter construct, composed of six dimeric CSL binding sites linked to a basic b-globin promoter and followed by a firefly luciferase gene and a PEST degradation domain was synthesised (GeneArt). The construct was stably introduced into HEK293T cells, and zeocin (0.1 mg/ml) or Puromycin (0.05 mg/ml (ThermoFisher, cat #R25001, #A1113803) were used as selection markers. A clonal cell line (clone #A1) with robust renilla expression and enhanced firefly luciferase expression upon transient transfection of Notch1 ICD or Notch1ΔE constructs was selected, and a UB6 promoter-Notch1DE construct was stably introduced into this cell line using Blasticidin (0.1 mg/ml; ThermoFisher, cat #A1113903) as a selection marker. Stable cell lines were generated by serial dilution and only clonal colonies were selected for further evaluation. To measure luciferase reporter activity, cells were washed in cold PBS, detached, and collected in pre-warmed cell culture medium and centrifugated for five min at 200xg. The cell pellet was resuspended in medium, cells were counted, and 4,000 cells were seeded in each well of a white 384 well plate (Corning #3670) in 20 µl medium containing either DMSO or the GSI DAPT (N-[N-(3,5-Difluorophenacetyl)-L-alanyl]-S-phenylglycine t-butyl ester, Sigma-Aldrich, cat #565784-M) and incubated for 24 h. The efficacy of the reporter gene system was determined by monitoring the level of luciferase activation in the absence or presence of different amounts of DAPT in several cell clones. Luciferase activity was assessed using the dual-GLO luciferase detection kit from Promega (cat # E2920), following the manufacturer’s instructions. A minimum of two technical replicates were measured per clone using a SpectraMaxi3 plate reader (Molecular Devices). Reporter activity of different clones and in response to DAPT was assessed by normalising firefly (Notch activity) to renilla luciferase signals. Normalised signals of individual clones cultivated in DMSO were then compared to corresponding signals generated with DAPT-treated cells. The cell clone with the strongest signal to control ratio (DMSO to DAPT) was then selected for further exploration (clone #A1-11).
37,966 compounds were spotted by the compound center at SciLifeLab (https://www.scilifelab.se/) on a total of 120 plates (Greiner #781080) at a fixed concentration of 10 µM and the screening process spanned five consecutive sessions. The layout of each plate contained one column for DMSO and one for DAPT controls to determine the quality and reliability of the data. DAPT controls were spotted at 10 µM and DMSO was spotted in an equimolar volume. In addition, plates spotted with only DMSO were utilized to investigate the impact of plate effects before and after each session. […]

γ-secretase complex = γ-secretase complex (Homo sapiens, UniProt P49768); experiment: APP-C99 counter assay (GSI reporter assay); assay type: cell-based; design: AUC APP: scale not given here; conditions: for Hill-slope / curve fit information: 14p APP assay DR, bottom constrained to Emax of positive control LY-411575; for AUC APP: area under the 14-point dose-response curve, replicates averaged
Experimental: To this end, we used a previously established reporter gene-based GSI assay (APP-C99) (Fig. 3A), which measures γ-secretase activity through cleavage of amyloid precursor protein (APP), another protein processed by the γ-secretase complex[24]
Plasmids for APP and luciferase are described in[24] and the renilla plasmid described above generated for this project was used to normalize firefly values. 24 h post transfection cells were seeded on compound plates and cells were cultivated for 24 h before luciferase signals were read, as described.
Two-fold concentrations of compounds were diluted in 10 µl cell culture medium and brought to one-fold by seeding 10 µl containing 4000 cells of the respective cell type on each well of a 384-well plate, as described above. Analogous to the previous assays, all plates contained one DMSO and DAPT control column with the Notch reporter cell line (#A1-11) and a DMSO only and Notch inhibitor control plate was read before the measuring the screening plates. In addition, DAPT and DMSO were spotted in a dose response fashion, and a minimum of four replicates were read. Dose-responses of compounds were recorded in triplicates for each concentration reading out the dual luciferase reporters, as described above. Dose response assays were read together in one session. To measure compound effects, the different assays dose–response curves were fitted using the log(inhibitor) vs. response – Variable slope (model: Y = Bottom + (Top–Bottom)/(1 + 10^((LogIC50-X)*HillSlope)) equation.
A DMSO plate was read before measuring luciferase activity of compound spotted plates. APP firefly luciferase reporter assays were read with a signal integration time of 0.1 s, instead of 0.5 s used for the Notch reporter to reduce signal overlap between wells. […] The area-under-the-curve (AUC) was calculated on dose–response curves using Graphpad Prism.

[1] = 14p Notch assay DR, bottom constrained to Emax of positive control DAPT, read-out: approximated IC50
[2] = 14p Notch assay DR, log10 value, bottom constrained to Emax of positive control DAPT, read-out: approximated LogIC50 (converted)
[3] = 14-point dose-response, Fig. 4, read-out: approximated IC50, Notch reporter assay

IC50 (Notch signalling; [1]) [µM] | IC50 (Notch signalling; [2]) [µM] | Hill-slope (γ-secretase complex) | AUC APP (γ-secretase complex) | IC50 (Notch signalling; [3]) [µM] | curve fit information (γ-secretase complex) | approximated IC50, Notch reporter assay (Notch signalling; 14-point dose-response, Fig. 4) | Compound | Bottom (Emax) (Notch signalling; 14p Notch assay DR) | AUC Notch (Notch signalling)
> 40 | > 40 | -0.00462 | 501.6 | – | – | – | COc1cc(Nc2cncc(-c3cccc(N(C)C)c3)n2)cc(OC)c1OC [CBK065722] | 82.6 | 354.0
– | – | 0.0705 | 553.6 | – | – | – | COC(=O)c1cccc(N2C(=O)c3ccc(Oc4cccc(NC(C)=O)c4)cc3C2=O)c1 [CBK033640] | 91.5 | 399.0
10 | 10 | – | 735.5 | > 5 | IC50 indeterminate | – | CCn1ncc(CN(C)C(=O)c2cc(-c3cccnc3)nc3ccc(Cl)cc23)c1C [CBK276708] | 29.2 | 559.0
– | – | 0.0221 | 492.9 | – | – | – | COc1cc(Nc2nc(-c3ccc(Cl)cc3)cn3ccnc23)cc(OC)c1OC [CBK066238] | 82.4 | 336.0
27 | 25.1 | 0.0468 | 573.8 | – | – | – | COc1cc(Nc2cncc(-c3cccc(NC(C)=O)c3)n2)cc(OC)c1OC [CBK065162] | 40.8 | 335.0
– | – | 0.0225 | 737.0 | – | – | Indeterminate | Cc1c(C(C)NC(=O)c2[nH]c3ccccc3c2Cl)cnn1C (stereo not shown) [CBK246640] | 91.1 | 612.0
– | – | -0.9 | 479.3 | – | – | – | COc1cc(Nc2nc(-c3ccc(F)c(Cl)c3)cn3ccnc23)cc(OC)c1OC [CBK037275] | 90.9 | 361.0
– | – | – | 499.9 | – | IC50 indeterminate | – | O=C(Nc1nnc(-c2ccc3c(c2)OCCO3)o1)c1cccc(F)c1 [CBK287402] | 87.8 | 353.0
> 40 | > 40 | 0.0127 | 508.5 | – | – | – | CC(=O)Nc1cccc(-c2cn3ccnc3c(Nc3cccc(OC(F)(F)C(F)F)c3)n2)c1 [CBK037499] | 77.1 | 348.0
– | – | 0.3 | 828.0 | – | – | – | CC(=O)Nc1cccc(-c2cn3ccnc3c(Nc3ccc(N4CCOCC4)cc3)n2)c1 [CBK066362] | 95.3 | 529.0
– | – | -1.2 | 490.0 | – | – | – | COc1cccc(-c2nnc(NC(=O)c3ccc4c(c3)OCCO4)o2)c1 [CBK287591] | 88.3 | 363.0
– | – | 0.0876 | 533.6 | > 40 | – | – | Cc1ccccc1C(=O)NC(=S)Nc1sc2c(c1C(N)=O)CCC2 [CBK262107] | 90.8 | 379.0
36 | 39.8 | -8.75e-10 | 496.5 | – | IC50 indeterminate | – | COc1cc(-c2cn3ccnc3c(Nc3ccccc3)n2)cc(OC)c1OC [CBK066200] | 65.6 | 329.0
23 | 25.1 | 0.0798 | 545.0 | – | – | – | COc1cc(Nc2cncc(-c3cccc(N)c3)n2)cc(OC)c1OC [CBK065120] | 47.4 | 329.0
12 | 12.6 | -3.83e-12 | 487.2 | – | IC50 indeterminate | – | COc1cc(Nc2nc(-c3cccc(O)c3)cn3ccnc23)cc(OC)c1OC [CBK066361] | 55.6 | 316.0

Compound | IC50 (Notch signalling; [1]) [µM] | IC50 (Notch signalling; [2]) [µM] | Hill-slope (γ-secretase complex) | AUC APP (γ-secretase complex) | IC50 (Notch signalling; [3]) [µM] | curve fit information (γ-secretase complex) | approximated IC50, Notch reporter assay (Notch signalling; 14-point dose-response, Fig. 4) | Bottom (Emax) (Notch signalling; 14p Notch assay DR) | AUC Notch (Notch signalling)
c1ccc(-c2ccccc2CN2CCC3(CC2)OCCc2c3[nH]c3ccccc23)cc1 [CBK040201] | 2 | 2 | 0.0232 | 739.3 | – | – | – | 50.0 | 592.0
